Laboratory results from ChEMBL document CHEMBL5303304, “EUbOPEN Chemogenomics Library - IncuCyte” (2023).

Tests used:
Type in all cases: toxicity, cell-based
HEK-293T = assay: Incucyte cell viability with HEK293T; conditions: human, 10 µM, compound concentration 10 uM
Fibroblast = assay: Incucyte cell viability with human fibroblast; conditions: 10 µM, compound concentration 10 uM
U2OS = assay: Incucyte cell viability with U2OS; conditions: human, 10 µM, compound concentration 10 uM
Further: unitless GR value; below 1 slowed growth and below 0 cell loss.

| SMILES | Growth Rate (HEK-293T; 0 h, replicate number 1) | Growth Rate (HEK-293T; 0 h, replicate number 2) | Growth Rate (HEK-293T; 6 h, replicate number 1) | Growth Rate (HEK-293T; 12 h, replicate number 1) | Growth Rate (HEK-293T; 12 h, replicate number 2) | Growth Rate (HEK-293T; 18 h, replicate number 2) | Growth Rate (HEK-293T; 24 h, replicate number 1) | Growth Rate (HEK-293T; 24 h, replicate number 2) | Growth Rate (Fibroblast; 6 h, replicate number 2) | Growth Rate (Fibroblast; 12 h, replicate number 2) | Growth Rate (Fibroblast; 18 h, replicate number 2) | Growth Rate (Fibroblast; 24 h, replicate number 1) | Growth Rate (Fibroblast; 24 h, replicate number 2) | Growth Rate (U2OS; 24 h, replicate number 1) | Growth Rate (HEK-293T; 6 h, replicate number 2) | Growth Rate (HEK-293T; 18 h, replicate number 1) | Growth Rate (U2OS; 12 h, replicate number 2) | Growth Rate (U2OS; 18 h, replicate number 2) | Growth Rate (Fibroblast; 0 h, replicate number 2) | Growth Rate (U2OS; 6 h, replicate number 1) | also measured |
| --- | --- | --- | --- | --- | --- | --- | --- | --- | --- | --- | --- | --- | --- | --- | --- | --- | --- | --- | --- | --- | --- |
| O=C(O)C[C@H]1CCn2c1c(Sc1ccc(Cl)cc1)c1ccc(F)cc12 | 0.01 | -0.28 | 0.76 | 0.96 | 0.99 | 0.93 | 0.92 | 0.78 | 0.42 | 0.4 | 0.97 | 0.89 | 0.83 | 0.94 | – | – | – | – | – | – | Growth Rate (Fibroblast; 0 h, replicate number 1): -1 |
| CCn1c(-c2nonc2N)nc2c(C#CC(C)(C)O)ncc(OCC3CCCNC3)c21 (centres undefined) | 0.09 | 0.47 | -0.57 | -0.65 | -0.05 | 0.15 | -0.03 | 0.13 | -0.99 | 0.5 | 0.47 | 0.21 | 0.58 | 0.96 | -0.49 | -0.26 | 0.86 | 0.84 | – | – | Growth Rate (Fibroblast; 0 h, replicate number 1): -0.85; Growth Rate (Fibroblast; 18 h, replicate number 1): -0.63; Growth Rate (U2OS; 6 h, replicate number 2): 0.47; Growth Rate (U2OS; 24 h, replicate number 2): 0.9 |
| CNc1nc(NCc2ncccn2)c2c(-c3ccc4ncccc4c3)c[nH]c2n1 | – | – | 0.58 | 0.9 | 0.84 | 0.8 | 0.84 | 0.86 | – | – | – | – | – | 0.94 | 0.42 | 0.83 | 0.7 | 0.85 | -0.54 | 0.78 | Growth Rate (Fibroblast; 0 h, replicate number 1): -0.08; Growth Rate (Fibroblast; 12 h, replicate number 1): -0.94; Growth Rate (Fibroblast; 18 h, replicate number 1): 0.83; Growth Rate (U2OS; 6 h, replicate number 2): 0.82; Growth Rate (U2OS; 18 h, replicate number 1): 0.84; Growth Rate (U2OS; 24 h, replicate number 2): 0.86 |
| CCn1c(-c2nc3cc(C(=O)N4CCCC(N)C4)ccc3n2C)cc2ccccc21.Cl (centres undefined) | – | – | 0.45 | – | 0.8 | 0.89 | – | 0.87 | 0.59 | 0.96 | 0.78 | – | 0.77 | – | 0.09 | – | – | – | – | – | Growth Rate (Fibroblast; 6 h, replicate number 1): -0.88; Growth Rate (U2OS; 0 h, replicate number 1): -0.07; Growth Rate (U2OS; 0 h, replicate number 2): -0.69 |
| CCCNc1ccc2ncc(-c3ccncc3)n2n1 | – | – | -0.19 | -0.26 | -0.13 | – | 0.02 | -0.01 | 0.27 | 0.09 | 0.04 | 0.13 | 0.09 | 0.15 | -0.3 | -0.11 | – | 0.66 | 0.59 | 0.96 | Growth Rate (Fibroblast; 6 h, replicate number 1): 0.14; Growth Rate (Fibroblast; 12 h, replicate number 1): 0.2; Growth Rate (Fibroblast; 18 h, replicate number 1): 0.11; Growth Rate (U2OS; 0 h, replicate number 1): -1; Growth Rate (U2OS; 12 h, replicate number 1): 0.48; Growth Rate (U2OS; 18 h, replicate number 1): 0.14; Growth Rate (U2OS; 24 h, replicate number 2): 0.45 |
| CN(C(=O)c1ccccc1)c1ccc2c(c1)nc(NC(=O)c1ccc(Br)s1)n2CCC(N)=O | – | – | 0.09 | 0.33 | 0.26 | 0.3 | 0.4 | 0.34 | – | – | – | 0.96 | – | – | 0.04 | 0.34 | 0.72 | 0.71 | -0.39 | – | Growth Rate (Fibroblast; 0 h, replicate number 1): -0.8; Growth Rate (U2OS; 0 h, replicate number 1): -1; Growth Rate (U2OS; 6 h, replicate number 2): 0.89; Growth Rate (U2OS; 18 h, replicate number 1): 0.9; Growth Rate (U2OS; 24 h, replicate number 2): 0.68 |
| COc1cc2ncnc(Nc3cccc(O)c3)c2cc1OC | – | – | 0.14 | 0.56 | 0.71 | 0.75 | – | 0.77 | – | – | – | – | – | – | 0.13 | 0.96 | 0.75 | 0.69 | 0.07 | 0.98 | Growth Rate (Fibroblast; 0 h, replicate number 1): -1; Growth Rate (U2OS; 0 h, replicate number 1): -0.82; Growth Rate (U2OS; 6 h, replicate number 2): 0.55; Growth Rate (U2OS; 12 h, replicate number 1): 0.83; Growth Rate (U2OS; 18 h, replicate number 1): 0.88; Growth Rate (U2OS; 24 h, replicate number 2): 0.84 |
| CCn1c(CNC(=O)c2nc(Cl)cnc2N)[n+](CC)c2ccc(C(=O)N(C)CCN(C)C)cc21.[Cl-] | 0.65 | 0.44 | – | – | 0.57 | 0.77 | – | 0.84 | -0.24 | 0.59 | 0.7 | – | 0.96 | 0.84 | 0.55 | – | – | – | -0.38 | 0.28 | Growth Rate (U2OS; 0 h, replicate number 1): 0.81; Growth Rate (U2OS; 6 h, replicate number 2): 0.97; Growth Rate (U2OS; 12 h, replicate number 1): 0.84 |
| Cc1c(NC(=O)c2ccc(C(C)(C)C)cc2)cccc1-c1cn(C)c(=O)c(Nc2ccc(C(=O)N3CCOCC3)cc2)n1 | – | – | 0.48 | 0.38 | 0.51 | 0.35 | 0.63 | 0.48 | -0.1 | 0.63 | 0.72 | – | – | 0.97 | – | 0.53 | – | – | – | – | – |
| CN1C(=O)Cc2ccc(-c3ccc(C[C@@H](C#N)NC(=O)[C@@H]4N[C@H]5CC[C@@H]4C5)c(F)c3)cc21 | – | – | 0.06 | 0.07 | 0.61 | 0.73 | 0.28 | 0.82 | – | 0.99 | – | 0.61 | – | – | 0.52 | 0.19 | – | – | – | 0.89 | Growth Rate (Fibroblast; 6 h, replicate number 1): 0.38; Growth Rate (Fibroblast; 12 h, replicate number 1): 0.46; Growth Rate (Fibroblast; 18 h, replicate number 1): 0.42; Growth Rate (U2OS; 0 h, replicate number 1): 0.98 |
| O=c1cccc2n1C[C@@H]1CNC[C@H]2C1 [CYTISINICLINE] | – | – | – | 0.46 | 0.75 | 0.92 | 0.88 | 0.99 | -0.4 | 0.99 | 0.88 | 0.51 | 0.81 | 0.99 | 0.9 | 0.79 | 0.94 | 0.99 | – | – | Growth Rate (Fibroblast; 12 h, replicate number 1): -0.82; Growth Rate (U2OS; 12 h, replicate number 1): 0.79; Growth Rate (U2OS; 18 h, replicate number 1): 0.97 |
| O=C(O)c1cc(F)c2nc(N3[C@@H]4CC[C@H]3C[C@@H](OCc3c(-c5ccccc5OC(F)(F)F)noc3C3CC3)C4)sc2c1 [TROPIFEXOR] | – | 0.6 | – | – | – | – | – | – | 0.98 | – | – | 0.97 | – | – | – | – | – | – | 0.33 | 0.63 | Growth Rate (Fibroblast; 12 h, replicate number 1): 0.31; Growth Rate (Fibroblast; 18 h, replicate number 1): 0.63; Growth Rate (U2OS; 12 h, replicate number 1): 0.99 |
| O=C(O)c1ccc2c(c1)nc(NCc1ccccc1)c1ncncc12 | -0.17 | -0.9 | – | – | – | – | – | – | – | – | – | – | – | – | – | – | – | – | -0.94 | – | Growth Rate (Fibroblast; 0 h, replicate number 1): -0.98; Growth Rate (Fibroblast; 12 h, replicate number 1): 0.74; Growth Rate (U2OS; 0 h, replicate number 1): 0.98 |
| CC[C@H]1[C@@H](O)[C@@H]2[C@H](CC[C@]3(C)[C@@H]([C@H](C)CCC(=O)O)CC[C@@H]23)[C@@]2(C)CC[C@@H](O)C[C@@H]12 [OBETICHOLIC ACID] | 0.42 | -0.65 | – | – | 0.96 | – | – | – | 0.74 | 0.62 | 0.87 | 0.9 | 0.95 | – | 0.83 | – | – | – | – | -0.88 | Growth Rate (Fibroblast; 6 h, replicate number 1): 0.39; Growth Rate (Fibroblast; 12 h, replicate number 1): 0.91; Growth Rate (Fibroblast; 18 h, replicate number 1): 0.82; Growth Rate (U2OS; 12 h, replicate number 1): 0.87 |
| Nc1nccc(-c2c(-c3ccc(F)cc3)ncn2C2CCN(Cc3ccon3)CC2)n1 | 0.09 | – | – | – | – | – | – | – | – | – | – | – | – | – | 0.91 | – | 0.75 | 0.72 | -0.11 | 0.99 | Growth Rate (U2OS; 6 h, replicate number 2): 0.8; Growth Rate (U2OS; 24 h, replicate number 2): 0.66 |
| Cc1[nH]nc(C(F)(F)F)c1Cc1sc2c(c1C(=O)N1C[C@](C)(O)CO1)c(=O)n(C)c(=O)n2C(C)C [AZD3965] | -0.63 | -0.81 | – | 0.53 | 0.43 | 0.22 | 0.11 | 0.21 | – | 0.69 | 0.97 | 0.9 | 0.8 | 0.75 | – | 0.17 | 0.71 | 0.69 | – | – | Growth Rate (Fibroblast; 6 h, replicate number 1): 0.95; Growth Rate (U2OS; 12 h, replicate number 1): 0.92; Growth Rate (U2OS; 24 h, replicate number 2): 0.83 |
